PubChem BioAssay AID180 (DTP/NCI, 2004)
Several values for one entry are separate records, joined by “and”; a condition that tells them apart may be missing. Equal values may be shown once.

Tested on: BDF1 mice, Adenocarcinoma 755 s.c., tumor weight T/C
Test: NCI In Vivo Anticancer Drug Screen. Data for tumor model Adenocarcinoma 755 (subcutaneous) in B6D2F1 (BDF1) mice
Conditions: endpoint: mean tumor weight, higher = larger tumour
Summary of the method: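 In vivo antitumor screen on a transplantable tumor line. Result equals the measure in compound-treated animals divided by the same measure in vehicle controls.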

[1] = dose: 25.0 mg/kg/injection, schedule: Q01DX011 (ip), vehicle: methylcellulose (MC)
[2] = dose: 75.0 mg/kg/injection, schedule: Q01DX011 (ip), vehicle: methylcellulose (MC)
[3] = dose: 225.0 mg/kg/injection, schedule: Q01DX011 (ip), vehicle: methylcellulose (MC)
[4] = dose: 25.0 mg/kg/injection, schedule: Q01DX011 (ip), vehicle: carboxymethylcellulose (CMC)
[5] = dose: 75.0 mg/kg/injection, schedule: Q01DX011 (ip), vehicle: carboxymethylcellulose (CMC)
[6] = dose: 225.0 mg/kg/injection, schedule: Q01DX011 (ip), vehicle: carboxymethylcellulose (CMC)
[7] = dose: 50.0 mg/kg/injection, schedule: Q01DX011 (ip), vehicle: carboxymethylcellulose (CMC)

CC1CN1P(=O)(N1CCCC1)N1CC1C (stereo not given)
T/C (dose: 6.3 mg/kg/injection, schedule: Q01DX011 (ip), vehicle: saline): 73 % of control | T/C (dose: 12.5 mg/kg/injection, schedule: Q01DX011 (ip), vehicle: saline): 58 % of control | T/C (dose: 25.0 mg/kg/injection, schedule: Q01DX011 (ip), vehicle: saline): 19 % of control and 20 % of control | T/C (dose: 50.0 mg/kg/injection, schedule: Q01DX011 (ip), vehicle: saline): 2 % of control and 3 % of control

CSc1ncc(Br)c(Nc2ccc(Cl)c(Cl)c2)n1
T/C (dose: 15.0 mg/kg/injection, schedule: Q01DX011 (ip), vehicle: methylcellulose (MC)): 57 % of control | T/C (dose: 31.0 mg/kg/injection, schedule: Q01DX011 (ip), vehicle: methylcellulose (MC)): 66 % of control | T/C (dose: 62.0 mg/kg/injection, schedule: Q01DX011 (ip), vehicle: methylcellulose (MC)): 78 % of control | T/C (dose: 125.0 mg/kg/injection, schedule: Q01DX011 (ip), vehicle: methylcellulose (MC)): 67 % of control | T/C (dose: 250.0 mg/kg/injection, schedule: Q01DX011 (ip), vehicle: methylcellulose (MC)): 62 % of control

CC(C)Cn1cnc2c(SCC(=O)O)nc(N)nc21
T/C [1]: 114 % of control | T/C [2]: 85 % of control | T/C [3]: 114 % of control

Nc1ncnc2c1ccn2C1OC(CO)C(O)C1O (stereo not given)
T/C (dose: 0.5 mg/kg/injection, schedule: Q01DX011 (ip), vehicle: carboxymethylcellulose (CMC)): 68 % of control | T/C (dose: 1.0 mg/kg/injection, schedule: Q01DX011 (ip), vehicle: carboxymethylcellulose (CMC)): 76 % of control

CC(C)CN(C)/N=N/c1nc[nH]c1C(N)=O
T/C [4]: 40 % of control | T/C (dose: 37.5 mg/kg/injection, schedule: Q01DX011 (ip), vehicle: carboxymethylcellulose (CMC)): 22 % of control

Cn1cnc2nc[nH]c2c1=O
T/C (dose: 31.2 mg/kg/injection, schedule: Q01DX011 (ip), vehicle: carboxymethylcellulose (CMC)): 95 % of control | T/C (dose: 62.5 mg/kg/injection, schedule: Q01DX011 (ip), vehicle: carboxymethylcellulose (CMC)): 99 % of control | T/C (dose: 125.0 mg/kg/injection, schedule: Q01DX011 (ip), vehicle: carboxymethylcellulose (CMC)): 108 % of control | T/C (dose: 250.0 mg/kg/injection, schedule: Q01DX011 (ip), vehicle: carboxymethylcellulose (CMC)): 116 % of control

Nc1nc2c(ncn2C2CCCC2)c(=O)[nH]1
T/C [4]: 88 % of control | T/C [5]: 63 % of control | T/C [6]: 59 % of control

CSc1cc(NCc2ccccc2)nc(N)n1
T/C [1]: 85 % of control | T/C [2]: 65 % of control

CN(C)S(=O)(=O)c1nc2nc[nH]c(=O)c2[nH]1
T/C (dose: 30.0 mg/kg/injection, schedule: Q01DX011 (ip), vehicle: carboxymethylcellulose (CMC)): 108 % of control | T/C (dose: 60.0 mg/kg/injection, schedule: Q01DX011 (ip), vehicle: carboxymethylcellulose (CMC)): 158 % of control | T/C (dose: 120.0 mg/kg/injection, schedule: Q01DX011 (ip), vehicle: carboxymethylcellulose (CMC)): 101 % of control | T/C (dose: 240.0 mg/kg/injection, schedule: Q01DX011 (ip), vehicle: carboxymethylcellulose (CMC)): 91 % of control

Nc1nc(SCc2cccc([N+](=O)[O-])c2)c2[nH]cnc2n1
T/C (dose: 37.5 mg/kg/injection, schedule: Q01DX011 (ip), vehicle: methylcellulose (MC)): 41 % of control | T/C [2]: 8 % of control | T/C (dose: 150.0 mg/kg/injection, schedule: Q01DX011 (ip), vehicle: methylcellulose (MC)): 3 % of control | T/C (dose: 300.0 mg/kg/injection, schedule: Q01DX011 (ip), vehicle: methylcellulose (MC)): 1 % of control

CS(=O)(=O)OCCC(=O)NCCCCNC(=O)CCOS(C)(=O)=O
T/C (dose: 56.0 mg/kg/injection, schedule: Q01DX011 (ip), vehicle: carboxymethylcellulose (CMC)): 66 % of control | T/C (dose: 56.0 mg/kg/injection, schedule: Q01DX011 (ip), vehicle: methylcellulose (MC)): 85 % of control | T/C (dose: 113.0 mg/kg/injection, schedule: Q01DX011 (ip), vehicle: carboxymethylcellulose (CMC)): 48 % of control | T/C (dose: 113.0 mg/kg/injection, schedule: Q01DX011 (ip), vehicle: methylcellulose (MC)): 31 % of control | T/C [6]: 12 % of control | T/C [3]: 8 % of control | T/C (dose: 450.0 mg/kg/injection, schedule: Q01DX011 (ip), vehicle: carboxymethylcellulose (CMC)): 7 % of control

Cc1cnc2nc(N)nc(N)c2n1
T/C [7]: 67 % of control | T/C [5]: 33 % of control

C[C@@H]1C[C@H]2[C@@H]3CCC4=CC(=O)C=C[C@]4(C)[C@@]3(F)[C@@H](O)C[C@]2(C)[C@@]1(O)C(=O)CO
T/C (dose: 7.0 mg/kg/injection, schedule: Q01DX011 (sc), vehicle: steriod suspending solution): 19 % of control and 32 % of control and 39 % of control | T/C (dose: 14.0 mg/kg/injection, schedule: Q01DX011 (sc), vehicle: steriod suspending solution): 1 % of control and 25 % of control | T/C (dose: 21.0 mg/kg/injection, schedule: Q01DX011 (sc), vehicle: steriod suspending solution): 4 % of control | T/C (dose: 28.0 mg/kg/injection, schedule: Q01DX011 (sc), vehicle: steriod suspending solution): 10 % of control

COC(=O)C1(N)CCCC1
T/C (dose: 12.5 mg/kg/injection, schedule: Q01DX011 (ip), vehicle: carboxymethylcellulose (CMC)): 63 % of control | T/C [4]: 35 % of control | T/C [7]: 11 % of control | T/C (dose: 100.0 mg/kg/injection, schedule: Q01DX011 (ip), vehicle: carboxymethylcellulose (CMC)): 5 % of control
